# What was measured:
# [1] = tested on: MDA-MB 231 cells; experiment: Crystal violet proliferation study; type: cell-based
# Experimental: FIG. 11 is a graph showing the results of MDA-MB 231 proliferation studies. MDA-MB 231 cells were used as they express the triple negative cancer phenotype. Compound 3 was selected due to potency in inhibition of both MEK1/2 and MEK5. MDA-MB 231 cells were plated at 10,000 cells per well in a 96 well TC plate in 5% Charcoal-Dextran stripped media and incubated overnight at 37° C. in 5% CO2. The cells were treated with drug or vehicle the following day. Plates were harvested on days 3, 5 and 7 and stained with Crystal Violet. […] The cells were washed, lysed, and the absorbance of Crystal Violet sequestered in living cells was determined at […]. Wells were conducted in duplicate. Experiments were run in triplicate. Cells were normalized to initial cell count.
# Proliferation studies were conducted using MDA-MB 231 cells, as they express the triple negative cancer phenotype. […] The cells were washed, lysed, and the absorbance of Crystal Violet sequestered in living cells was determined at […]. […]
# Triple-negative breast cancer (TNBC) cells MDA-MB-231 were seeded in 96-well plates at a density of 2,000 cells per well in 5% charcoal-stripped phenol free DMEM, allowed to attach overnight, and subsequently treated with DMSO and MEK inhibitor compounds in duplicate. […] Cells were washed, lysed with 33% acetic acid, and the absorbance was read at 630 nm in a Biotek Synergy plate reader. […]
# [2] = tested on: MDA-MB 231 cells; experiment: Morphology (mesenchymal to epithelial phenotype) during proliferation testing; type: cell-based
# Experimental: Proliferation studies were conducted using MDA-MB 231 cells, as they express the triple negative cancer phenotype. Compound 3 was selected due to its potency in inhibition of both MEK1/2 and MEK5. MDA-MB 231 cells were plated at 10,000 cells per well in a 96 well TC plate in 5% Charcoal-Dextran stripped media and incubated overnight at 37° C. in 5% CO2. The cells were treated with drug or vehicle the following day. Plates were harvested on days 3, 5 and 7 and stained with Crystal Violet. […] The cells were washed, lysed, and the absorbance of Crystal Violet sequestered in living cells was determined at […]. Wells were conducted in duplicate. Experiments were run in triplicate. Cells were normalized to initial cell count.
# Examination of the MDA-MB 231 cells during the proliferation testing period was conducted. Untreated (DMSO) cells retained an elongated spiky cellular morphology characteristic of the mobile and invasive mesenchymal phenotype. […] The observed phenotypic conversion persisted for 14 days without reversion back to the mesenchymal phenotype, see FIG. 12.
# [3] = tested on: MDA-MB-231 xenograft; experiment: Animal xenograft study, tumor volume; type: in vivo, SCID/beige female mice; conditions: SCID female mice, 1×10^6 MDA-MB231 cells bilaterally, 25 mg/kg on day 0, 30 days
# Experimental: End point tumor volume for SCID female mice injected bilaterally with 1×10^6 MDA-MB231 cells, n=10. Animals were treated on day 0 (cell injection day) with either DMSO or SC-1-151 (25 mg/kg). Tumor size was measured biweekly for 30 days using a digital caliper. Bars represent final average tumor volume±SEM.
# Immune-compromised SCID/beige female mice (29-32 days old) were obtained from Charles River Laboratories (Wilmington, Mass.). The animals were allowed a period of adaptation in a sterile and pathogen-free environment with food and water ad libitum. Breast cancer cells MDA-MB-231 were grown in 5% FBS charcoal-stripped DMEM for five days then harvested. Viable cells were mixed with PBS and Matrigel Reduced Factors (BD Biosciences, San Jose, Calif.). Injections (1×10^6 cells/injection) were made bilaterally into the mammary fat pad on day 0 (May 7, 2013). All the procedures in animals were carried out under anesthesia using a mix of isoflurane and oxygen delivered by mask. Animals were treated on day 0 with either DMSO or SC-1-151 (25 mg/kg). Tumor size was measured biweekly for 30 days using a digital caliper. Tumor volume was calculated using the following formula: 4/3πLM^2, where L is the larger radius and M is the smaller radius. On day 31, tumors were excised and blocked in OCT compound. Mice were monitored daily to insure survival after the surgery. […]
structure (smiles),measurement,setting,value
"NC(=O)c1ccc(F)c(F)c1Nc1ccc(I)cc1F [Compound 3, 3,4-difluoro-2-((2-fluoro-4-iodophenyl)amino)benzamide]",reduction in growth relative to untreated (DMSO),[1]; 7 day time point,70%
same,overt cell death,[1]; even at saturation concentrations,No overt cell death
same,conversion of mesenchymal to epithelial cellular morphology,[2],more rounded cellular morphology
same,persistence of phenotypic conversion without reversion to mesenchymal phenotype,[2],14 days
same,conversion of cell phenotype,[2]; 10 μM,marked conversion of nearly all cells back to a more rounded phenotype
same,tumorigenesis in vivo (end point tumor volume),[3],decreases tumorigenesis
